Laboratory results: patent US6660752B2, “2,6-Substituted chroman derivatives useful as beta-3 adrenoreceptor agonists” (Bayer Pharmaceuticals Corporation, priority 2001, dated 2003)

target: T1, human beta-3-adrenergic receptor (Homo sapiens, UniProt P13945); experiment: cAMP production (beta-3 agonist activity) in CHO cells stably expressing human beta-3-adrenergic receptor, cAMP SPA; type: cell-based; details: CHO cells expressing full-length human beta-3-adrenergic receptor, 30 min incubation, 10 μM to 3 nM, read-out: Beta-3 Agonistic Activity: Compounds with EC50 values >1 μM
T1 construct: stably express full-length human beta-3-adrenergic receptor; expressed in transfected cells; host or cells: Chinese hamster ovary (CHO) cells
How it was run: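 CHO cells stably expressing full-length receptor treated 30 min at 37° C with compounds (10 μM to 3 nM, 3-fold dilutions) in KRP buffer pH 7.4 with […] IBMX and 1% DMSO. Lysed cells assayed for cAMP by SPA; EC50 derived from cAMP concentration-response curves.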

T1 sequence (P13945 whole entry): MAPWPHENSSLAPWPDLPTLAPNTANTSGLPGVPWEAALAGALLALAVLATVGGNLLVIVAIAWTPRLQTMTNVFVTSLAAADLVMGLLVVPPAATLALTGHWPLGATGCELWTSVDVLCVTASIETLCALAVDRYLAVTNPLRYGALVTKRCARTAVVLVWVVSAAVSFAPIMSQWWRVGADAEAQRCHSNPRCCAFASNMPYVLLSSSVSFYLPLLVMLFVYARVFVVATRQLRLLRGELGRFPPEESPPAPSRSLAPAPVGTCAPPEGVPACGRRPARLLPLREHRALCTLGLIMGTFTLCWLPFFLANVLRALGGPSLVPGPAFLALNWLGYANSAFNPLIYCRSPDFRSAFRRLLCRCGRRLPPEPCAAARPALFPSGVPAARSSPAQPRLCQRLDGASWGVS

| Structure (SMILES) | EC50 |
| --- | --- |
| O[C@@H](CNC[C@H]1CCc2cc(-c3ccc(Cl)c(Cl)c3)ccc2O1)c1cccnc1 [Example 39, (1R)-2-({[(2R)-6-(3,4-dichlorophenyl)-3,4-dihydro-2H-chromen-2-yl]methyl}amino)-1-(3-pyridinyl)ethanol] | > 1000 nM |
| Nc1ccc([C@@H](O)CNC[C@H]2CCc3cc(C(=O)N(CC(=O)O)Cc4ccccn4)ccc3O2)cn1 [Example 365] | > 1000 nM |

same assay, conditions: CHO cells expressing full-length human beta-3-adrenergic receptor, 30 min incubation, 10 μM to 3 nM, read-out: Beta-3 Agonistic Activity: Compounds with EC50 values ≦1 μM

| Structure (SMILES) | EC50 |
| --- | --- |
| CS(=O)(=O)c1ccc(Oc2cc(-c3ccc4c(c3)CC[C@H](CNC[C@H](O)c3cccnc3)O4)ccc2C(=O)O)cc1 [Example 198, 4-[(2R)-2-({[(2R)-2-hydroxy-2-(3-pyridinyl)ethyl]amino}methyl)-3,4-dihydro-2H-chromen-6-yl]-2-[4-(methylsulfonyl)phenoxy]benzoic acid] | ≤ 1000 nM |
| COc1ccc(NC(=O)NS(=O)(=O)c2cccc(-c3ccc4c(c3)CC[C@H](CNC[C@H](O)c3cccnc3)O4)c2)cc1 [Example 334] | ≤ 1000 nM |
| CCOc1cc(-c2ccc3c(c2)CC[C@H](CNC[C@H](O)c2cccnc2)O3)ccc1C(=O)O [Example 185, 2-ethoxy-4-[(2R)-2-({[(2R)-2-hydroxy-2-(3-pyridinyl)ethyl]amino}methyl)-3,4-dihydro-2H-chromen-6-yl]benzoic acid] | ≤ 1000 nM |
| CCCOc1cc(-c2ccc3c(c2)CC[C@H](CNC[C@H](O)c2cccnc2)O3)ccc1C(=O)O [Example 186, 4-[(2R)-2-({[(2R)-2-hydroxy-2-(3-pyridinyl)ethyl]amino}methyl)-3,4-dihydro-2H-chromen-6-yl]-2-propoxybenzoic acid] | ≤ 1000 nM |
| Nc1ccc([C@@H](O)CNC[C@H]2CCc3cc(-c4ccc(C(=O)O)cc4)ccc3O2)cn1 [Example 385, 4-[(2R)-2-({[(2R)-2-(6-amino-3-pyridinyl)-2-hydroxyethyl]amino}methyl)-3,4-dihydro-2H-chromen-6-yl]benzoic Acid] | ≤ 1000 nM |
| Cc1ccnc(NS(=O)(=O)c2ccc(-c3ccc4c(c3)CC[C@H](CNC[C@H](O)c3cccnc3)O4)cc2)n1 [Example 268, 4-[(2R)-2-({[(2R)-2-hydroxy-2-(3-pyridinyl)ethyl]amino}methyl)-3,4-dihydro-2H-chromen-6-yl]-N-(4-methyl-2-pyrimidinyl)benzenesulfonamide] | ≤ 1000 nM |
| CC(C)C(=O)NS(=O)(=O)c1ccc(-c2ccc3c(c2)CC[C@H](CNC[C@H](O)c2cccnc2)O3)cc1 [Example 290] | ≤ 1000 nM |
| O[C@@H](CNC[C@H]1CCc2cc(-c3cccc4ccccc34)ccc2O1)c1cccnc1 [Example 54] | ≤ 1000 nM |
| Cc1cccc(C(=O)NS(=O)(=O)c2cccc(-c3ccc4c(c3)CC[C@H](CNC[C@H](O)c3cccnc3)O4)c2)c1 [Example 297] | ≤ 1000 nM |
| CC(=O)c1ccc(NS(=O)(=O)c2ccc(-c3ccc4c(c3)CC[C@H](CNC[C@H](O)c3cccnc3)O4)cc2OC(F)(F)F)cc1 [Example 263] | ≤ 1000 nM |
| O=C(Nc1ccc(F)cc1)NS(=O)(=O)c1cccc(-c2ccc3c(c2)CC[C@H](CNC[C@H](O)c2cccnc2)O3)c1 [Example 333] | ≤ 1000 nM |
| CCOC(=O)c1ccc(Oc2cc(-c3ccc4c(c3)CC[C@H](CNC[C@H](O)c3cccnc3)O4)ccc2C(=O)O)cc1 [Example 197, 2-[4-(ethoxycarbonyl)phenoxy]-4-[(2R)-2-({[(2R)-2-hydroxy-2-(3-pyridinyl)ethyl]amino}methyl)-3,4-dihydro-2H-chromen-6-yl]benzoic acid] | ≤ 1000 nM |
| Nc1ccc([C@@H](O)CNC[C@H]2CCc3cc(C(=O)NC4(C(=O)O)CC4)ccc3O2)cn1 [Example 366, 1-({[(2R)-2-({[(2R)-2-(6-amino-3-pyridinyl)-2-hydroxyethyl]amino}methyl)-3,4-dihydro-2H-chromen-6-yl]carbonyl}amino)cyclopropanecarboxylic acid] | ≤ 1000 nM |
| O=C(O)c1cccc(CCc2ccc3c(c2)CCC(CNC[C@H](O)c2cccnc2)O3)c1 (stereo in doubt) [Example 216, 3-{2-[(2S)-2-({[(2R)-2-hydroxy-2-(3-pyridinyl)ethyl]amino}methyl)-3,4-dihydro-2H-chromen-6-yl]ethyl}benzoic Acid] | ≤ 1000 nM |
